From ChEMBL document CHEMBL1201862, “PubChem BioAssay data set” (2004)
Activity calls are given as the source filed them.

How the values were obtained:
Cytochrome P450 1A2 = molecular target: T1, Cytochrome P450 1A2 (Homo sapiens, UniProt P05177);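 also: PubChem cytochrome P450 panel assay, CYP1A2 panel member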
T1 sequence (P05177 whole entry): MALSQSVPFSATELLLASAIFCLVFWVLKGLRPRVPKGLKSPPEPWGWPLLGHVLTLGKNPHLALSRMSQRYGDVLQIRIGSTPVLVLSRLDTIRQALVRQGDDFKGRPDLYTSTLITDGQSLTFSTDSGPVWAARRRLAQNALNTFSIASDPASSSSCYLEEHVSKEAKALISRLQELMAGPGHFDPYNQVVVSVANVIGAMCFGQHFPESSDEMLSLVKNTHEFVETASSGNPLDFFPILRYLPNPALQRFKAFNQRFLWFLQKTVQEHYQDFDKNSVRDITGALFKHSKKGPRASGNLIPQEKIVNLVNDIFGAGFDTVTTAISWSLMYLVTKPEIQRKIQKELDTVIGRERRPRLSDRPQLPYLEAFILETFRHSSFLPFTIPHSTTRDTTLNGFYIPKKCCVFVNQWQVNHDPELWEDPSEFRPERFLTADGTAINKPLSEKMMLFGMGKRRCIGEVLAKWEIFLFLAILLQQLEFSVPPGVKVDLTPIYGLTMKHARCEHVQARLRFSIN

Cytochrome P450 3A4 = Cytochrome P450 3A4 (Homo sapiens, UniProt P08684);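 also: CYP3A4 tested as one member of a cytochrome P450 panel screen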
[1] = tested on: Streptococcus sp. 'group A'; assay: growth inhibition of control SK(-) GAS strain, dose response, counter-screen for streptokinase expression inhibitor project, luminescence, kanamycin, BacTiterGlo, confirmation (AID 1900); format: functional, organism-based
Streptococcus = assay: Group A Streptococcus viability loss, dose response, counter-screen for streptokinase expression inhibitor project, luminescence, BacTiterGlo (AID 1915); format: functional, organism-based;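 also: potency for reduction of bacterial viability or growth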
[2] = molecular target: T2, Heat shock factor protein 1 (Mus musculus, UniProt P38532); assay: inhibition of MG132-induced HSE-luciferase signal, confirmation, cell-based, NIH3T3, luminescence, dose retest (AID 2382); format: functional;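 also: NIH3T3 fibroblasts with HSF1-driven luciferase reporter stressed by proteasome inhibitor MG132; luminescence from HSF1-driven luciferase expression after 8 hours of MG132 stress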
T2 sequence (P38532 whole entry): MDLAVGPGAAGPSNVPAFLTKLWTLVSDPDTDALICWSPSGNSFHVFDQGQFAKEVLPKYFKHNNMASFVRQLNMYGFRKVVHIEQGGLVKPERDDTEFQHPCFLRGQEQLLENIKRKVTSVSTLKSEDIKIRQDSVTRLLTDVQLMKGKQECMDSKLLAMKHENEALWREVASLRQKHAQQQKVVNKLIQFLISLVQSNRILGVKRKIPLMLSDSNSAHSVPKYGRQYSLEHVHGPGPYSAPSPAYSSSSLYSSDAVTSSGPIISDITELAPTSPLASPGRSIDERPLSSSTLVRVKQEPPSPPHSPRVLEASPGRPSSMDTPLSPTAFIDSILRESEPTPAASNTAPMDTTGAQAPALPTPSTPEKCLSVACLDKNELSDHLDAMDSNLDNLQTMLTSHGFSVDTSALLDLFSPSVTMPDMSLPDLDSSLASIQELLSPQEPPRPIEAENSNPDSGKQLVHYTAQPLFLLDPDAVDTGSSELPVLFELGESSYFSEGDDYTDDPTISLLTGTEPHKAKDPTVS

Cytochrome P450 2C9 = Cytochrome P450 2C9 (Homo sapiens, UniProt P11712)
[3] = HEp-2 cell cytotoxicity, dose response, cytotoxicity control for RSV inhibitor project, HTS (AID 2410); format: functional; conditions: human respiratory syncytial virus
Cytochrome P450 2C19 = Cytochrome P450 2C19 (Homo sapiens, UniProt P33261); assay: Cytochrome panel assay with activity outcomes. Panel member name: p450-cyp2c19 Compounds with AC50 equal or less than 10 uM are considered active; format: functional; conditions: read-out: AC50
[4] = molecular target: T3, Corticotropin-releasing factor receptor 2/Corticotropin-releasing factor-binding protein (Homo sapiens, UniProt P24387+Q13324); assay: activators of CRF receptor 2 with binding protein – uHTS hits, confirmation (AID 602473); format: functional; conditions: read-out: EC50_Mean
T3 sequence (Q13324 whole entry): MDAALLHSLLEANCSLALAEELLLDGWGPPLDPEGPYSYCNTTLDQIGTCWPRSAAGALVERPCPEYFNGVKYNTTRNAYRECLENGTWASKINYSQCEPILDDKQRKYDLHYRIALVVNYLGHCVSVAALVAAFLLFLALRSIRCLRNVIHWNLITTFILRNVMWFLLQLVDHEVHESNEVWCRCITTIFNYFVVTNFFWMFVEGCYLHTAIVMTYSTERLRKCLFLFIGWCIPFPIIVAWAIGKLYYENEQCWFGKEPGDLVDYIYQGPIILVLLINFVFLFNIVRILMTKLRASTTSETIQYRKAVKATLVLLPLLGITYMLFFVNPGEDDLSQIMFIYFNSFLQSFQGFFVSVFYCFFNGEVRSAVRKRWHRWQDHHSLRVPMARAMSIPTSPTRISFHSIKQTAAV
T3 sequence (P24387 whole entry): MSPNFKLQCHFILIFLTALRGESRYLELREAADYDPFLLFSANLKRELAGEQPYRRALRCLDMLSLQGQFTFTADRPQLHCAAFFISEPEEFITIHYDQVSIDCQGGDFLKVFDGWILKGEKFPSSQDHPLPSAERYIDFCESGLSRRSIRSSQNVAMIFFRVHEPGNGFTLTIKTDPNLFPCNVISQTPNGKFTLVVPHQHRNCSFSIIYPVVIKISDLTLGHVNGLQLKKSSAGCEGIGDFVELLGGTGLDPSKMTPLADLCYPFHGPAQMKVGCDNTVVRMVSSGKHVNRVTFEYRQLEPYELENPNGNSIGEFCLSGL

[5] = inhibitors of firefly luciferase expression or activity, dose response, H4 neuroglioma cells, luminescence (AID 1990); format: functional, cell-based

Sequence of Cytochrome P450 2C19 (P33261 whole entry): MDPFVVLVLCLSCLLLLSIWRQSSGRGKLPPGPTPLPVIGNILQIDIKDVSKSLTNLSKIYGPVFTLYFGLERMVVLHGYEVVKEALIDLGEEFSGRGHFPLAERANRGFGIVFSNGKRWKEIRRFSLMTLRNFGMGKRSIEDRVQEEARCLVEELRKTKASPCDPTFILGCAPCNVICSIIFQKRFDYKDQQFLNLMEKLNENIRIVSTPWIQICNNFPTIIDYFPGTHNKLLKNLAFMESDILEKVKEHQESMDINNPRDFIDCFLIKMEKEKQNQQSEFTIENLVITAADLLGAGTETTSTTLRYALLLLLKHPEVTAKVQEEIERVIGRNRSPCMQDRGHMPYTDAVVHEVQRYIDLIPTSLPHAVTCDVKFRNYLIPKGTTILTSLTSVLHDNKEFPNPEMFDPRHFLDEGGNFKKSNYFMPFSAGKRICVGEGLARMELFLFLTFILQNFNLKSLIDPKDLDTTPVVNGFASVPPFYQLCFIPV
Sequence of Cytochrome P450 2C9 (P11712 whole entry): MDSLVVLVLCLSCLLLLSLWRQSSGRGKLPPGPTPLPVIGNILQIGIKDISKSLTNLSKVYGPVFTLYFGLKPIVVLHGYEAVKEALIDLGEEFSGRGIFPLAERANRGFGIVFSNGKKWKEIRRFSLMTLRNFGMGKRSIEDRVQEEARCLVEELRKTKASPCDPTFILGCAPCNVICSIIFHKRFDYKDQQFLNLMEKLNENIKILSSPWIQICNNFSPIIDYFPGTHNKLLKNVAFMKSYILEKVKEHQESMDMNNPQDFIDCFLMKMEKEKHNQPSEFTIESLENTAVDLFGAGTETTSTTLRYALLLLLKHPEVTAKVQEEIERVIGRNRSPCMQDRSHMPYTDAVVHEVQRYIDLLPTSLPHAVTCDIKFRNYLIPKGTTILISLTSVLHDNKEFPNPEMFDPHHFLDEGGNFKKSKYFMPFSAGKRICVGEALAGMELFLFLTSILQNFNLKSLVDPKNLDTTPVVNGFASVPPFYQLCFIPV
Sequence of Cytochrome P450 3A4 (P08684 whole entry): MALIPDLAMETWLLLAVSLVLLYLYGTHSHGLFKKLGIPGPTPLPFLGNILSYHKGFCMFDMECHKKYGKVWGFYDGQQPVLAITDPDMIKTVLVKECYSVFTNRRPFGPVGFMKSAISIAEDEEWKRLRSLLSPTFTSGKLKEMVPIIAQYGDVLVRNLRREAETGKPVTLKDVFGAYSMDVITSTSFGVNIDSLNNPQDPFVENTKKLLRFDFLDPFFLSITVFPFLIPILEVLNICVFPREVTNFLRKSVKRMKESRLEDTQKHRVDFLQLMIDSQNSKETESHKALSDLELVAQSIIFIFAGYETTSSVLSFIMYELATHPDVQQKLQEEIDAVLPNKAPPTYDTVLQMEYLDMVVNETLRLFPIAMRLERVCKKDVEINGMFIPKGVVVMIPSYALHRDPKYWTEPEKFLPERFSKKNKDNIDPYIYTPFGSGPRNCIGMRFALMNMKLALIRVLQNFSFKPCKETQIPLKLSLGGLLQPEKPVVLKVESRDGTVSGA

N[C@H](C(=O)O)[C@H](O)C(=O)O
AC50 (Cytochrome P450 1A2): 39.8 µM (inconclusive) | AC50 (Cytochrome P450 3A4): 0.0316 µM (inconclusive)

O=C(Nc1nnc(C2=COCCO2)o1)c1ccc(Br)cc1
EC50 [1]: 1.9 µM (active) | EC50 (Streptococcus): 5.47 µM (active)

CN(c1ccccc1)S(=O)(=O)c1nnc(NC(=O)COc2ccccc2F)s1
EC50 [2]: > 195 µM (not active)

COc1ccc2c(c1)C(=O)N(Cc1ccco1)C(=O)/C2=C\Nc1c(C)n(C)n(-c2ccccc2)c1=O
AC50 (Cytochrome P450 3A4): 8.91 µM (inconclusive) | AC50 (Cytochrome P450 2C9): 7.94 µM (inconclusive)

CC(C)CC1Nc2ccc(C(=O)NCCCN3CCOCC3)cc2NC1=O (stereo not given)
EC50 [2]: > 195 µM (not active)

CCN(C(=O)C1CCCN(c2ncnc3c2nc2n3CCCCC2)C1)c1cccc(Cl)c1 (stereo not given)
CC50 [3]: 10.7 µM (active)

C[C@]12CC[C@H]3c4ccc(OC[C@H]5CO5)cc4CC[C@H]3[C@H]1CC[C@@H]2O
AC50 (Cytochrome P450 2C19): 3.16 µM (inconclusive) | AC50 (Cytochrome P450 2C9): 3.16 µM (inconclusive)

CC1CC(C)CN(C/C=C/c2ccccc2[N+](=O)[O-])C1 (stereo not given)
AC50 (Cytochrome P450 1A2): 14.1 µM (inconclusive) | AC50 (Cytochrome P450 3A4): 25.1 µM (inconclusive) | AC50 (Cytochrome P450 2C9): 1.58 µM (inconclusive)

CS(=O)(=O)N1CCC2(CC1)CN(c1ccncc1)C2
AC50 (Cytochrome P450 2C19): 20 µM (inconclusive)

COc1ccccc1C(=O)NNC(=O)C(=O)Nc1ccc(C)c(Cl)c1
EC50 [1]: 1.73 µM (active) | EC50 (Streptococcus): 3.87 µM (active)

Cc1cc([N+](=O)[O-])ccc1NC(=O)CCC(=O)N1CCCCC1
EC50 [2]: > 195 µM (not active)

O=C(OCC(=O)N1N=C(c2ccc(Cl)cc2)CC1c1ccco1)c1ccco1 (stereo not given)
EC50 [4]: > 53 µM (inactive)

COc1cc2cc(CN(C(=O)NC3CCCCC3)C3CCCC3)c(O)nc2cc1OC
EC50 [2]: > 195 µM (not active)

O=C(c1ccc2c(=O)n(Cc3ccccc3)c(=S)[nH]c2c1)N1CCOCC1
EC50 [2]: > 195 µM (not active)

CCSc1nnc(NC(=O)C(Cc2ccccc2)n2cccc2)s1 (stereo not given)
EC50 [2]: > 195 µM (not active)

N#Cc1c(-c2ccc3c(c2)OCO3)csc1N
EC50 [2]: > 195 µM (not active)

C=CCn1c(SCC(=O)NCCc2ccccc2)nnc1C(C)NC(=O)c1cccs1 (stereo not given)
EC50 [2]: > 195 µM (not active)

COc1cccc(C(c2nnnn2Cc2ccco2)N2CCN(c3cccc(C)c3C)CC2)c1OC (stereo not given)
CC50 [3]: 18.5 µM (active)

N#CN(CC(N)=O)c1nc(N2CCCCC2)nc(N2CCCCC2)n1
AC50 (Cytochrome P450 2C19): 22.4 µM (inconclusive) | AC50 (Cytochrome P450 2C9): 10 µM (inconclusive)

COc1ccc(CN2CCSCC2)cc1C
EC50 [4]: 12.7 µM (active)

COc1ccc(NS(=O)(=O)c2ccc(-c3ccccn3)s2)cc1
EC50 [2]: > 195 µM (not active)

Cc1n[nH]c(C)c1S(=O)(=O)N1CCC(C(=O)O)CC1
AC50 (Cytochrome P450 2C19): 22.4 µM (inconclusive)

COC(=O)[C@@H]1CC[C@H](C)[C@@H](c2ccc(C)cc2)N1C(=O)c1ccc(/C=N\OC[C@@H](O)COCc2ccco2)cc1
AC50 (Cytochrome P450 2C19): 2.51 µM (inconclusive) | AC50 (Cytochrome P450 3A4): 1.26 µM (inconclusive)

Cc1nc(SC2CC(=O)N(c3ccc([N+](=O)[O-])cc3)C2=O)nc2c1CCCC2 (stereo not given)
AC50 (Cytochrome P450 3A4): 20 µM (inconclusive) | AC50 (Cytochrome P450 2C9): 11.2 µM (inconclusive)

Clc1ccc2c(c1)N(CCCN1CCCC13CCCCC3)c1ccccc1S2
AC50 (Cytochrome P450 2C19): 5.01 µM (inconclusive)

C=CC[C@@H]1C=C[C@@H](O/N=C\C[C@@H]2C=C[C@H](OC(C)=O)[C@H](COC(C)=O)O2)[C@@H](CO)O1
AC50 (Cytochrome P450 3A4): 3.98 µM (inconclusive)

Cc1noc(C)c1CSCC(=O)Nc1ccc(S(=O)(=O)C(F)F)cc1
EC50 [2]: > 195 µM (not active)

COc1ccc(NC(=O)CC#N)cc1OC
AC50 (Cytochrome P450 2C19): 0.00501 µM (inconclusive)

CCc1nnc2sc(-c3ccc(NC(=O)c4ccco4)cc3)nn12
AC50 (Cytochrome P450 1A2): 14.1 µM (inconclusive) | AC50 (Cytochrome P450 3A4): 0.708 µM (inconclusive)

CCC1CCCCN1Cc1ccc(OC)c(C)c1 (stereo not given)
EC50 [4]: 14 µM (active)

COc1cc2c(cc1OC)CN(C(=O)CCCOc1ccc(Cl)cc1Cl)CC2
CC50 [3]: 24.7 µM (active)

Cc1noc(C)c1COC(=O)c1cccc(N(C)C)c1
CC50 [3]: 11.9 µM (active)

C=C(C)Cn1c(NCCC)nc2c1c(=O)n(C)c(=O)n2C
EC50 [2]: > 195 µM (not active)

COC(=O)N1CCC2(CCCN(C(=O)Nc3cccc(C#N)c3)C2)CC1
AC50 (Cytochrome P450 2C19): 10 µM (inconclusive) | AC50 (Cytochrome P450 3A4): 6.31 µM (inconclusive)

COC(=O)[C@@]1(Cc2ccc(F)cc2)[C@H]2c3cc(C(=O)N4CCCC4)n(Cc4ccccn4)c3C[C@H]2CN1C(=O)c1ccccc1
AC50 (Cytochrome P450 2C19): 39.8 µM (inconclusive) | AC50 (Cytochrome P450 1A2): 20 µM (inconclusive)

CCCn1c(SCC(=O)N2CC(=O)Nc3ccccc32)nc2ccccc21
EC50 [4]: > 53 µM (inactive)

O=C(CSCc1ccccc1Cl)NNC(=O)c1ccccc1
AC50 (Cytochrome P450 1A2): 15.8 µM (inconclusive) | AC50 (Cytochrome P450 3A4): 11.2 µM (inconclusive)

CC(=O)c1cccc(NC(=O)CSCc2ccccc2)c1
AC50 (Cytochrome P450 3A4): 28.2 µM (inconclusive) | AC50 (Cytochrome P450 2C9): 7.94 µM (inconclusive)

CCN1CCN(Cc2ccc(NC(=O)c3cc(NC(=O)c4cnnc5ccccc45)cc(OC)c3)cc2C(F)(F)F)CC1
CC50 [3]: 29 µM (active)

CCCCCc1nc2c(c(=O)c3ccccc3n2C)c(=O)n1Cc1ccc(OC)cc1
CC50 [3]: > 50 µM (active)

CCOc1ccc(N/C(=N/N)c2ccc3ccccc3n2)cc1
EC50 [2]: > 195 µM (not active)

COc1ccccc1C(=O)N/C(=C\c1cn(S(=O)(=O)N(C)C)c2ccccc12)C(=O)NCCN1CCOCC1
EC50 [2]: > 195 µM (not active)

COc1ccc(-c2cc3ncnc(Cl)c3s2)cc1
EC50 [1]: 9.73 µM (active) | EC50 (Streptococcus): 26 µM (active)

Cc1ccc2nc(CC(=O)c3ccc4ccccc4c3)c(O)nc2c1
AC50 (Cytochrome P450 2C19): 0.794 µM (inconclusive) | AC50 (Cytochrome P450 1A2): 2 µM (inconclusive) | AC50 (Cytochrome P450 3A4): 3.98 µM (inconclusive)

CCCCCCc1cc2cc(C(=O)NCc3ccccc3)c(=N)oc2cc1O
EC50 [4]: 4.2 µM (active)

CCN(CC)c1nc2c(c(=O)[nH]c(=O)n2C)n1CCOc1ccccc1
EC50 [2]: > 195 µM (not active)

COc1ccc(CC(=N)NOC(=O)Cc2ccccc2)cc1OC
AC50 (Cytochrome P450 2C19): 15.8 µM (inconclusive) | AC50 (Cytochrome P450 1A2): 14.1 µM (inconclusive)

CC(C)OCCCNC(=O)C1CC(=O)N(C2CCCCCCC2)C1 (stereo not given)
AC50 (Cytochrome P450 2C19): 17.8 µM (inconclusive) | AC50 (Cytochrome P450 3A4): 25.1 µM (inconclusive)

CC1(C)Cc2ccccc2C(NNC(=O)c2ccncc2)=N1
AC50 (Cytochrome P450 2C19): 31.6 µM (inconclusive)

Cc1ccc(C(=O)N/N=C/c2cn(Cc3ccccc3)c3ccccc23)cn1
EC50 [5]: 7.88 µM (active)

Cc1nnc(C)n1/N=C/c1ccc(-c2ccccc2)cc1
AC50 (Cytochrome P450 1A2): 10 µM (inconclusive) | AC50 (Cytochrome P450 3A4): 22.4 µM (inconclusive) | AC50 (Cytochrome P450 2C9): 12.6 µM (inconclusive)

COc1ccc(-c2csc3c2[N+]2=CCC=C2C3[O-])cc1 (stereo not given)
AC50 (Cytochrome P450 3A4): 3.16 µM (inconclusive) | AC50 (Cytochrome P450 2C9): 6.31 µM (inconclusive)
